Measurements taken from patent US12479830B2, “Homopiperazinyl and homopiperidinyl quinazolin-4(3H)-one derivatives having multimodal activity against pain” (ESTEVE PHARMACEUTICALS, S.A., priority 2019, dated 2025).

How the values were obtained:
[1] = biological target: T1, Human σ1 receptor (Homo sapiens, UniProt Q99720); experiment: Human σ1 receptor radioligand assay ([3H](+)-pentazocine binding); conditions: binding to the σ1 receptor, expressed as Ki class; + also covers inhibition between 1% and 50%
T1 construct: expressed in transfected cells; host or cells: HEK-293
Experimental: Human σ1 Receptor Radioligand Assay
Transfected HEK-293 membranes (7 μg) were incubated with 5 nM of [^3H](+)-pentazocine in assay buffer containing Tris-HCl 50 mM at pH 8. NBS (non-specific binding) was measured by adding 10 μM haloperidol. The binding of the test compound was measured at either one concentration (% inhibition at 1 or 10 μM) or five different concentrations to determine affinity values (Ki). Plates were incubated at 37° C. for 120 minutes. After the incubation period, the reaction mix was then transferred to MultiScreen HTS, FC plates (Millipore), filtered and plates were washed 3 times with ice-cold 10 mM Tris-HCL (pH7.4). Filters were dried and counted at approximately 40% efficiency in a MicroBeta scintillation counter (Perkin-Elmer) using EcoScint liquid scintillation cocktail.

[2] = biological target: Human α2δ-1 subunit of Cav2.2 calcium channel (Homo sapiens, UniProt P54289); experiment: Human α2δ-1 subunit of Cav2.2 calcium channel assay ([3H]-gabapentin binding); conditions: binding to the α2δ-1 subunit of voltage-gated calcium channels, expressed as Ki class; + also covers inhibition between 1% and 50%
Experimental: Human α2δ-1 Subunit of Cav2.2 Calcium Channel Assay
Human α2δ-1 enriched membranes (2.5 μg) were incubated with 15 nM of radiolabeled [^3H]-Gabapentin in assay buffer containing Hepes-KOH 10 mM. pH 7.4. NSB (non specific binding) was measured by adding 10 μM pregabalin. The binding of the test compound was measured at either one concentration (% inhibition at 1 or 10 μM) or five different concentrations to determine affinity values (Ki). After 60 min incubation at 27° C., binding reaction was terminated by filtering through Multiscreen GF/C (Millipore) presoaked in 0.5% polyethyleneimine in Vacuum Manifold Station, followed by 3 washes with ice-cold filtration buffer containing 50 mM Tris-HCl, pH 7.4. Filter plates were dried at 60° C. for 1 h and 30 μL of scintillation cocktail were added to each well before radioactivity reading. Readings were performed in a Trilux 1450 Microbeta radioactive counter (Perkin Elmer).

T1 sequence (Q99720 whole entry): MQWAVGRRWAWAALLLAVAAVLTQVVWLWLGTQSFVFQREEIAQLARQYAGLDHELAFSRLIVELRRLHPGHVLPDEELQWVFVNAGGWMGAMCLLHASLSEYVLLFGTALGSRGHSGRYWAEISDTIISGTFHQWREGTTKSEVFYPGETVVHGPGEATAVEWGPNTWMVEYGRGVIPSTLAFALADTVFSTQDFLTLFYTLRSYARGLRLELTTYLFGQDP
Sequence of Human α2δ-1 subunit of Cav2.2 calcium channel (P54289 25-1103): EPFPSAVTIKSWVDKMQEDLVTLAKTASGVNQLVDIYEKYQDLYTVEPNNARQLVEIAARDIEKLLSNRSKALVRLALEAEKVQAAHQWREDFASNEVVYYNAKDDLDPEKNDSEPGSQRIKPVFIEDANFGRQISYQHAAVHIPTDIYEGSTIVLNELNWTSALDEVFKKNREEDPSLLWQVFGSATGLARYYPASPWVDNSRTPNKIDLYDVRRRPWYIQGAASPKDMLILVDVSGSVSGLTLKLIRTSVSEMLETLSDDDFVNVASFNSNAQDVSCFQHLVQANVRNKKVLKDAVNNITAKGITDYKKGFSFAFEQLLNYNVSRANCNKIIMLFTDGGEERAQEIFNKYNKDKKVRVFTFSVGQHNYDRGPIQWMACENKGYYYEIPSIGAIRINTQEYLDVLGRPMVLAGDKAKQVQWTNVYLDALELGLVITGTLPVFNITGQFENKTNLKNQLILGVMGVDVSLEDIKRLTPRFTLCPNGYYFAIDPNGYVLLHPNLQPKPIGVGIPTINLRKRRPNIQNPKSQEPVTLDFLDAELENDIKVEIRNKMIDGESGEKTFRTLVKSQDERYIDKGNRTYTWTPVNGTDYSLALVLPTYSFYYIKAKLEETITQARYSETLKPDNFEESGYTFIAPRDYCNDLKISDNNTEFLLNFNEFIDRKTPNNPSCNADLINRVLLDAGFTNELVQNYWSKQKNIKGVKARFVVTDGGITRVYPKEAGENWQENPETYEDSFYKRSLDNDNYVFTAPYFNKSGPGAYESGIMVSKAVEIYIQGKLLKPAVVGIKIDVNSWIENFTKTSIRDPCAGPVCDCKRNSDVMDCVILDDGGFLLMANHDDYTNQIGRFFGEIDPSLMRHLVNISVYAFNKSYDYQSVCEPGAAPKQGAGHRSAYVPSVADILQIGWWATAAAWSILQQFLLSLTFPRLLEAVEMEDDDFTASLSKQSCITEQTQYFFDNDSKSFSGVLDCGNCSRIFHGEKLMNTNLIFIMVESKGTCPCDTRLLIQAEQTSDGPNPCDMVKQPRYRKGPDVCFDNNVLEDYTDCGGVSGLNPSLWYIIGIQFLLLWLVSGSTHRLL

Compound	Ki [1]	Ki [2]
CCC[C@H](c1nc2ncc(Br)cc2c(=O)n1CC)N1CCNC[C@H](C)C1 [Example 197, 6-bormo-3-ethyl-2-((R)-1-((S)-6-methyl-1,4-diazepan-1-yl)butyl)pyrido[2,3-d]pyrimidin-4(3H)-one]	> 1000 nM	< 500 nM
CCCC(c1nc2ncc(Br)cc2c(=O)n1CC1CC1)N1CCCN(C)CC1 (stereo not drawn) [Example 183, 6-bromo-3-(cyclopropylmethyl)-2-(1-(4-methyl-1,4-diazepan-1-yl)butyl)pyrido[2,3-d]pyrimidin-4(3H)-one]	> 1000 nM	< 500 nM
CCCC(c1nc2cc(Br)ccc2c(=O)n1CC)N1CCCNCC1 (stereo not drawn) [Example 4, 2-(1-(1,4-diazepan-1-yl)butyl)-7-bromo-3-ethylquinazolin-4(3H)-one]	> 1000 nM	< 500 nM
CCCC(c1nc2ccc(C)cc2c(=O)n1CC)N1CCCN(C)CC1 (stereo not drawn) [Example 8, 3-ethyl-6-methyl-2-(1-(4-methyl-1,4-diazepan-1-yl)butyl)quinazolin-4(3H)-one]	> 1000 nM	< 500 nM
CCC[C@H](c1nc2ccc(Br)cc2c(=O)n1CC)N1CCN(C)C[C@@H](C)C1 [Example 35, 6-bromo-2-((R)-1-((R)-4,6-dimethyl-1,4-diazepan-1-yl)butyl)-3-ethylquinazolin-4(3H)-one]	> 1000 nM	< 500 nM
CCCC(c1nc2ccc(CC)cc2c(=O)n1CC)N1CCCN(C)CC1 (stereo not drawn) [Example 205, 3,6-diethyl-2-(1-(4-methyl-1,4-diazepan-1-yl)butyl)quinazolin-4(3H)-one]	> 1000 nM	< 500 nM
CCCC(c1nc2ccc(Br)cc2c(=O)n1CCOC)N1CCCN(C)CC1 (stereo not drawn) [Example 14, 6-bromo-3-(2-methoxyethyl)-2-(1-(4-methyl-1,4-diazepan-1-yl)butyl)quinazolin-4(3H)-one]	> 1000 nM	500 to 5000 nM
CCC[C@H](c1nc2cc(F)c(F)cc2c(=O)n1CC)N1CCCN[C@H](C)C1 [Example 261, 3-ethyl-6,7-difluoro-2-((R)-1-((R)-3-methyl-1,4-diazepan-1-yl)butyl)quinazolin-4(3H)-one]	> 1000 nM	< 500 nM
CCC[C@H](c1nc2cc(F)c(OC)cc2c(=O)n1CC)N1CCNC[C@@H](C)C1 [Example 243, 3-ethyl-7-fluroo-6-methoxy-2-((R)-1-((R)-6-methyl-1,4-diazepan-1-yl)butyl)quinazolin-4(3H)-one]	> 1000 nM	< 500 nM
CCC[C@H](c1nc2ccc(F)cc2c(=O)n1CC)N1CCCN[C@@H](C)C1 [Example 145, 3-ethyl-6-fluoro-2-((R)-1-((S)-3-methyl-1,4-diazepan-1-yl)butyl)quinazolin-4(3H)-one]	> 1000 nM	< 500 nM
CCCC(c1nc2ccc(C#N)cc2c(=O)n1CC)N1CCCN(C)CC1 (stereo not drawn) [Example 10, 3-ethyl-2-(1-(4-methyl-1,4-diazepan-1-yl)butyl)-4-oxo-3,4-dihydroquinazoline-6-carbonitrile]	> 1000 nM	< 500 nM
CCCC(c1nc2ccc(O)cc2c(=O)n1CC)N1CCCN(C)CC1 (stereo not drawn) [Example 203, 3-Ethyl-6-hydroxy-2-(1-(4-methyl-1,4-diazepan-1-yl)butyl)quinazolin-4(3H)-one]	> 1000 nM	< 500 nM
CCC[C@@H](c1nc2cc(F)c(Br)cc2c(=O)n1CC)N1CCNC[C@H](C)C1 [Example 98]	> 1000 nM	500 to 5000 nM
CCC[C@H](c1nc2cc(F)c(Br)cc2c(=O)n1CC)N1CCCNCC1 [Example 157, (R)-2-(1-(1,4-Diazepan-1-yl)butyl)-6-bromo-3-ethyl-7-fluoroquinazolin-4(3H)-one]	> 1000 nM	< 500 nM
CCCC(c1nc2ccc(Br)cc2c(=O)n1CC)N1CCN2CCC1CC2 (stereo not drawn) [Example 80, 2-(1-(1,4-diazabicyclo[3.2.2]nonan-4-yl)butyl)-6-bromo-3-ethylquinazolin-4(3H)-one]	> 1000 nM	> 5000 nM
CCC[C@H](c1nc2ccc(Br)cc2c(=O)n1CC)N1CCNC[C@@H](O)C1 [Example 114, 6-bromo-3-ethyl-2-((R)-1-((R)-6-hydroxy-1,4-diazepan-1-yl)butyl)quinazolin-4(3H)-one]	> 1000 nM	< 500 nM

Other lines, results leading:

Ki [1]	Ki [2]	Compound
> 1000 nM	< 500 nM	CCC[C@H](c1nc2ccc(OC)cc2c(=O)n1CC)N1CCCN(C)CC1 [Example 15, (R)-3-ethyl-6-methoxy-2-(1-(4-methyl-1,4-diazepan-1-yl)butyl)quinazolin-4(3H)-one]
< 500 nM	< 500 nM	CCC[C@H](c1nc2cc(F)c(F)cc2c(=O)n1CC)N1CCN[C@@H](C)CC1 [Example 242, 3-ethyl-6,7-difluoro-2-((R)-1-((S)-5-methyl-1,4-diazepan-1-yl)butyl)quinazolin-4(3H)-one]
> 1000 nM	> 5000 nM	CCC[C@@H](c1nc2cc(Cl)c(Cl)cc2c(=O)n1CC)N1CCNC[C@@H](C)C1 [Example 112, 6,7-dichloro-3-ethyl-2-((S)-1-((R)-6-methyl-1,4-diazepan-1-yl)butyl)quinazolin-4 (3H)-one]
> 1000 nM	> 5000 nM	CCC[C@@H](c1nc2ccc(Cl)cc2c(=O)n1CC)N1CCN(C)C[C@H](C)C1 [Example 73, 6-chloro-2-((S)-1-((S)-4,6-dimethyl-1,4-diazepan-1-yl)butyl)-3-ethylquinazolin-4(3H)-one]
500 to 1000 nM	> 5000 nM	CCC[C@@H](c1nc2c(F)cc(Br)cc2c(=O)n1CC)N1CCCN(C)CC1 [Example 162, (S)-6-bromo-3-ethyl-8-fluoro-2-(1-(4-methyl-1,4-diazepan-1-yl)butyl)quinazolin-4(3H)-one]
> 1000 nM	> 5000 nM	CCC[C@@H](c1nc2ccncc2c(=O)n1CC)N1CCN(C)C[C@@H](C)C1 [Example 171, 2-((S)-1-((R)-4,6-dimethyl-1,4-diazepan-1-yl)butyl)-3-ethylpyrido[4,3-d]pyrimidin-4(3H)-one]
< 500 nM	< 500 nM	CCC[C@H](c1nc2ccc(Br)cc2c(=O)n1CC)N1CCCN(C)CC1 [Example 151, (R)-6-Bromo-3-ethyl-2-(1-(4-methyl-1,4-diazepan-1-yl)butyl)quinazolin-4(3H)-one]
500 to 1000 nM	< 500 nM	CCCC(c1nc2cc(F)c(F)cc2c(=O)n1CC)N1CCCN(C)CC1 (stereo not drawn) [Example 29, 3-ethyl-6,7-difluoro-2-(1-(4-methyl-1,4-diazepan-1-yl)butyl)quinazolin-4(3H)-one]
500 to 1000 nM	< 500 nM	CCC[C@H](c1nc2cc(F)c(Br)cc2c(=O)n1CC)N1CCN(C)C[C@H](C)C1 [Example 127, 6-Bromo-2-((R)-1-((S)-4,6-dimethyl-1,4-diazepan-1-yl)butyl)-3-ethyl-7-fluoroquinazolin-4(3H)-one]
< 500 nM	< 500 nM	CCCC(c1nc2ccc(Br)cc2c(=O)n1CCC)N1CCCN(C)CC1 (stereo not drawn) [Example 18, 6-bromo-2-(1-(4-methyl-1,4-diazepan-1-yl)butyl)-3-propylquinazolin-4(3H)-one]
500 to 1000 nM	< 500 nM	CCC[C@H](c1nc2cc(F)c(Cl)cc2c(=O)n1CC)N1CCNC[C@H](C)C1 [Example 118, 6-Chloro-3-ethyl-7-fluoro-2-((R)-1-((S)-6-methyl-1,4-diazepan-1-yl)butyl)quinazolin-4(3H)-one]
< 500 nM	< 500 nM	CCCC(c1nc2cc(F)c(Br)cc2c(=O)n1CCC)N1CCCN(CC)CC1 (stereo not drawn) [Example 61, 6-bromo-2-(1-(4-ethyl-1,4-diazepan-1-yl)butyl)-7-fluoro-3-propylquinazolin-4(3H)-one]
< 500 nM	< 500 nM	CCCCn1c([C@@H](CCC)N2CCCN(C)CC2)nc2ccc(F)cc2c1=O [Example 224, (R)-3-butyl-6-fluoro-2-(1-(4-methyl-1,4-diazepan-1-yl)butyl)quinazolin-4(3H)-one]
500 to 1000 nM	500 to 5000 nM	CCCC(c1nc2c(F)cc(OC)cc2c(=O)n1CC)N1CCCN(C)CC1 (stereo not drawn) [Example 117, 3-ethyl-8-fluoro-6-methoxy-2-(1-(4-methyl-1,4-diazepan-1-yl)butyl)quinazolin-4(3H)-one]
500 to 1000 nM	< 500 nM	CCC[C@H](c1nc2cc(F)c(Cl)cc2c(=O)n1CC)N1CCNC[C@@H](C)C1 [Example 119, 6-chloro-3-ethyl-7-fluoro-2-((R)-1-((R)-6-methyl-1,4-diazepan-1-yl)butyl)quinazolin-4(3H)-one]
500 to 1000 nM	< 500 nM	CCC[C@H](c1nc2cc(F)c(Br)cc2c(=O)n1CC)N1CCN(C)C[C@@H](C)C1 [Example 130, 6-bromo-2-((R)-1-((R)-4,6-dimethyl-1,4-diazepan-1-yl)butyl)-3-ethyl-7-fluoroquinazolin-4 (3H)-one]
< 500 nM	> 5000 nM	CCCC(c1nc2ccc(Br)cc2c(=O)n1C)N1CCCN(CC)CC1 (stereo not drawn) [Example 85, 6-bromo-2-(1-(4-ethyl-1,4-diazepan-1-yl)butyl)-3-methylquinazolin-4(3H)-one]
